# US7341752B2, “Antibacterial treatment and composition” (Academia Sinica, priority 2005, dated 2008)
# Tested on: pathogenic Listeria bacteria
# Test: Prevention of Listeria infection in mice (centaurein given before infection), cumulative survival
# Format: in vivo, C57BL/6J mice
# Conditions: 20 μg per capita intraperitoneally 24 h before 1-2×10^6 Listeria i.p.; ten days after Listeria injection
# Procedure: Six-to-eight week-old C57BL/6J mice were injected intraperitoneally with centaurein at a dose ranging from 0-20 μg per capita. After twenty four hours, the same mice were injected with pathogenic Listeria bacteria. A dose of 1-2×10^6 bacteria were introduced intraperitoneally (in a total volume of 0.2 ml) into each mouse. The cumulative survival rates of the mice were then determined. […] In contrast, only 10% of the mice that were injected with Listeria and not treated with centaurein survived. Thus, centaurein protected the mice from a Listerial infection.
smiles,measurement,value
COc1ccc(-c2oc3cc(O[C@@H]4O[C@H](CO)[C@@H](O)[C@H](O)[C@H]4O)c(OC)c(O)c3c(=O)c2OC)cc1O [centaurein],cumulative survival of mice,all of the mice
